Results as given in paper PMC6407917, “Identification of GSK3186899/DDD853651 as a Preclinical Development Candidate for the Treatment of Visceral Leishmaniasis” (Journal of Medicinal Chemistry, 2018).

Key:
Test in all cases: biochemical
Design in all cases: species or system HEK293/K-562/placenta mixed human extract; Kinobeads chemoproteomic competition binding, quantified by TMT LC-MS/MS, dose response up to 20 uM
[1] = molecular target: PLK1 (Homo sapiens, UniProt P53350)
[2] = molecular target: MARK4 (Homo sapiens, UniProt Q96L34)
[3] = molecular target: RB1CC1 (Homo sapiens, UniProt Q8TDY2)
[4] = molecular target: TTK (Homo sapiens, UniProt P33981)
[5] = molecular target: FER (Homo sapiens, UniProt P16591)
[6] = molecular target: MAP3K2 (Homo sapiens, UniProt Q9Y2U5)
[7] = molecular target: MAP3K7 (Homo sapiens, UniProt O43318)
Chain of MAP3K7 (O43318 whole entry): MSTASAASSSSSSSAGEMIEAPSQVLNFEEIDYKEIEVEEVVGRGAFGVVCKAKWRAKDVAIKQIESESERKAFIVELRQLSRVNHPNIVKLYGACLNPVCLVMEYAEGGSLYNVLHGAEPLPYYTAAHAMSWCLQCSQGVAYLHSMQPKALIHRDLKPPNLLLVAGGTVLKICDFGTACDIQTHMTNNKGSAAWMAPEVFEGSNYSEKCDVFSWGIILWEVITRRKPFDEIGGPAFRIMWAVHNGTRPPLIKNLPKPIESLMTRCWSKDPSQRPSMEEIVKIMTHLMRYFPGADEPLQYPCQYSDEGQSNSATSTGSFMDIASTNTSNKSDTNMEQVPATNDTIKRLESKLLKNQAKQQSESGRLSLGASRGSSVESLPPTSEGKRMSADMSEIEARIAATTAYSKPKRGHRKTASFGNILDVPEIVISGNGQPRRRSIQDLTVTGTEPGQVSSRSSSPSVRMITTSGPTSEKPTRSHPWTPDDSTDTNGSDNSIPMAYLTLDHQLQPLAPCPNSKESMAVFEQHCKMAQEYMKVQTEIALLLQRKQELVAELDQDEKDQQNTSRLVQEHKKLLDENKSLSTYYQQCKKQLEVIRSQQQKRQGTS

[8] = molecular target: MAP2K2 (Homo sapiens, UniProt P36507)
[9] = molecular target: EPHA1 (Homo sapiens, UniProt P21709)
Chain of EPHA1 (P21709 whole entry): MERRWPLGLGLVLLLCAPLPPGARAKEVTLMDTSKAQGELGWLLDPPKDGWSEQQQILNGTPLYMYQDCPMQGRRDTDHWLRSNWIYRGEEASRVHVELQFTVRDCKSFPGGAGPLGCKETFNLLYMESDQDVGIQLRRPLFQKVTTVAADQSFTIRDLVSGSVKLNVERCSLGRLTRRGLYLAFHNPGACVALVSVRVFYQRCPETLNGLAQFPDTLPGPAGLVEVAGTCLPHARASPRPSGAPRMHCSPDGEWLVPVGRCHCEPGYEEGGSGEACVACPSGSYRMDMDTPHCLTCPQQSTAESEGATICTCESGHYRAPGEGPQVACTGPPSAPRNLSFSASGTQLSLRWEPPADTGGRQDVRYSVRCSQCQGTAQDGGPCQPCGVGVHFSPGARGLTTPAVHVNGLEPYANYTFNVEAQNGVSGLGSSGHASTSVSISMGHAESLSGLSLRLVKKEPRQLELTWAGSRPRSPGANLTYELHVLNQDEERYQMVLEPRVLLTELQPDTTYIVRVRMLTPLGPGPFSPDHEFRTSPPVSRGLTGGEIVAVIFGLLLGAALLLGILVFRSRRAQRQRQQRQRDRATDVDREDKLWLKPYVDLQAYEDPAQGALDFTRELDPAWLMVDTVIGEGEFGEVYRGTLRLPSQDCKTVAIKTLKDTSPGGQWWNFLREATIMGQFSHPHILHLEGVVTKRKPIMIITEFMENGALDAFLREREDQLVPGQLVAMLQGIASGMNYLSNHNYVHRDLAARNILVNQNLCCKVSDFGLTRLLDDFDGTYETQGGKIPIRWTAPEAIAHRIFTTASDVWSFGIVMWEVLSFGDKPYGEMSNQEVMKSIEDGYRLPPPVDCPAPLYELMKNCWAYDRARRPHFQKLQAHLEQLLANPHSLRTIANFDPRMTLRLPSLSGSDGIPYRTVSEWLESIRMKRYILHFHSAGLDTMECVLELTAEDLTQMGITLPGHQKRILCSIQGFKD

[10] = molecular target: MAP3K11 (Homo sapiens, UniProt Q16584)
[11] = molecular target: EPHA5 (Homo sapiens, UniProt P54756)
Chain of EPHA5 (P54756 whole entry): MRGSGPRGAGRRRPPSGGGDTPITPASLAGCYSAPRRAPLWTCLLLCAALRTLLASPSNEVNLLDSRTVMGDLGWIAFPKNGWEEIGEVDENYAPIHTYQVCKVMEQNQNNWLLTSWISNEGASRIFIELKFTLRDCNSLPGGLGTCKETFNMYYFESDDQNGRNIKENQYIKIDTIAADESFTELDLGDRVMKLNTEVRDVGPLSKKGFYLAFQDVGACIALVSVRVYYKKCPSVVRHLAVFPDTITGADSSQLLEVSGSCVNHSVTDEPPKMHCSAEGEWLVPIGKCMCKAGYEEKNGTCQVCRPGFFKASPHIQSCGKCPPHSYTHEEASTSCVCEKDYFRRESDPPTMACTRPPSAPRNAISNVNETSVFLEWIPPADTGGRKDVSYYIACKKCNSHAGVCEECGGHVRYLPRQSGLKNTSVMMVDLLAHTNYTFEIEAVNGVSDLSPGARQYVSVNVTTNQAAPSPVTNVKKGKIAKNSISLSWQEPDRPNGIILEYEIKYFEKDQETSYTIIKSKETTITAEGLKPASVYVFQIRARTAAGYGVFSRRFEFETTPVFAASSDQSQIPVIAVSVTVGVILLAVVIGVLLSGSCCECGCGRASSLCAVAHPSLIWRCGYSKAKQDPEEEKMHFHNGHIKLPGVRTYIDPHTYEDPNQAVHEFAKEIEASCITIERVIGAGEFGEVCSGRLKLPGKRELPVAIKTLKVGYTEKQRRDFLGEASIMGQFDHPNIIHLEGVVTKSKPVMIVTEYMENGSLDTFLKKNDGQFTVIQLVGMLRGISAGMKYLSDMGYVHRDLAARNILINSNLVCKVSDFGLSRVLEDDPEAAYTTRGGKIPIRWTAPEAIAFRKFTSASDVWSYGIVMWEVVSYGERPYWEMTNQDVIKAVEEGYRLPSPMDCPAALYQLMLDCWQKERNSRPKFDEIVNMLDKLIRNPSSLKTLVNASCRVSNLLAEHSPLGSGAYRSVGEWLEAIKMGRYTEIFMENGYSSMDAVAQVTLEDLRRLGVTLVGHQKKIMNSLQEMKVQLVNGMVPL

[12] = molecular target: STK16 (Homo sapiens, UniProt O75716)
[13] = molecular target: mTOR (Homo sapiens, UniProt P42345)
[14] = molecular target: STK17B (Homo sapiens, UniProt O94768)
Chain of STK17B (O94768 whole entry): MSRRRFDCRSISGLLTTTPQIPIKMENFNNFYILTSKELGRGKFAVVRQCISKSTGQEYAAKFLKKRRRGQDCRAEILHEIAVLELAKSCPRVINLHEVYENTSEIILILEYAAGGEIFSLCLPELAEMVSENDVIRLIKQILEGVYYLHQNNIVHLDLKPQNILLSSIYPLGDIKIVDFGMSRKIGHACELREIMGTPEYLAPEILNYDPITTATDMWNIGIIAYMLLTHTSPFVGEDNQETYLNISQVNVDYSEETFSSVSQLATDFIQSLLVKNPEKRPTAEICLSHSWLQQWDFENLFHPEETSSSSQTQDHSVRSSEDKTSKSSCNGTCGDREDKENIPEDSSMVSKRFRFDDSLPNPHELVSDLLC

[15] = molecular target: PIM1 (Homo sapiens, UniProt P11309)
Chain of PIM1 (P11309 whole entry): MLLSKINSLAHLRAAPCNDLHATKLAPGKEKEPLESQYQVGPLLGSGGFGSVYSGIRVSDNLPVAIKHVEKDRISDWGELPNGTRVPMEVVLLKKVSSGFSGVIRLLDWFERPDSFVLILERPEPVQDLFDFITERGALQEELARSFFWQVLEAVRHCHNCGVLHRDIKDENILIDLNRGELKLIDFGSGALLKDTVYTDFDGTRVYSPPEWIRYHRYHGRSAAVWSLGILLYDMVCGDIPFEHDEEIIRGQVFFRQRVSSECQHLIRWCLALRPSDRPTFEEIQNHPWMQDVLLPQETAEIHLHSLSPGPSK

[16] = molecular target: SYK (Homo sapiens, UniProt P43405)
[17] = molecular target: EPHA2 (Homo sapiens, UniProt P29317)
Chain of EPHA2 (P29317 whole entry): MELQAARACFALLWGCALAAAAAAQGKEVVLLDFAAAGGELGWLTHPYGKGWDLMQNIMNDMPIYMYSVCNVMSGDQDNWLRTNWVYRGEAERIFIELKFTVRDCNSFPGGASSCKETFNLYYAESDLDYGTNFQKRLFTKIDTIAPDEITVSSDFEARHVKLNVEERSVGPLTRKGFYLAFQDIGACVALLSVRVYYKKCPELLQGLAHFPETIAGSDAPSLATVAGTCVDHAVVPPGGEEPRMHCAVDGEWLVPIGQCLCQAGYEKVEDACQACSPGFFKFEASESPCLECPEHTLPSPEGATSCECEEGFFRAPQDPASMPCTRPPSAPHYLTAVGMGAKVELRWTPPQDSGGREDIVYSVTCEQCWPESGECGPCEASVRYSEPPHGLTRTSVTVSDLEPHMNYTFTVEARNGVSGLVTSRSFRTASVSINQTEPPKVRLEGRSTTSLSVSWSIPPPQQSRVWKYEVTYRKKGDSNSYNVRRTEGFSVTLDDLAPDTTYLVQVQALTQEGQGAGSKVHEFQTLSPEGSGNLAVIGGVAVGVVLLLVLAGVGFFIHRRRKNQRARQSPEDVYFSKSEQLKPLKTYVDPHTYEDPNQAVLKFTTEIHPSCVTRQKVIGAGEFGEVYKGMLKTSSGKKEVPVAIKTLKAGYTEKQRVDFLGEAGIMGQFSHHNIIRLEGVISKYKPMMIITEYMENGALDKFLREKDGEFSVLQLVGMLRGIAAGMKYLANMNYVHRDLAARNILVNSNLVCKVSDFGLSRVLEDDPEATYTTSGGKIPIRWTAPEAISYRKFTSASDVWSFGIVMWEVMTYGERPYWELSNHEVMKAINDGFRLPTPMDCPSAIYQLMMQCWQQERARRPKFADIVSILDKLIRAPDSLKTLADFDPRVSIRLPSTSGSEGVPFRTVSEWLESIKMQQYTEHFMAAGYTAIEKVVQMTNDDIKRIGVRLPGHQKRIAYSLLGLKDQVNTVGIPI

[18] = molecular target: ULK1 (Homo sapiens, UniProt O75385)
[19] = molecular target: FGFR1 (Homo sapiens, UniProt P11362)
[20] = molecular target: FGR (Homo sapiens, UniProt P09769)
[21] = molecular target: SLK (Homo sapiens, UniProt Q9H2G2)

Measured: IC50

Chain of PLK1 (P53350 whole entry): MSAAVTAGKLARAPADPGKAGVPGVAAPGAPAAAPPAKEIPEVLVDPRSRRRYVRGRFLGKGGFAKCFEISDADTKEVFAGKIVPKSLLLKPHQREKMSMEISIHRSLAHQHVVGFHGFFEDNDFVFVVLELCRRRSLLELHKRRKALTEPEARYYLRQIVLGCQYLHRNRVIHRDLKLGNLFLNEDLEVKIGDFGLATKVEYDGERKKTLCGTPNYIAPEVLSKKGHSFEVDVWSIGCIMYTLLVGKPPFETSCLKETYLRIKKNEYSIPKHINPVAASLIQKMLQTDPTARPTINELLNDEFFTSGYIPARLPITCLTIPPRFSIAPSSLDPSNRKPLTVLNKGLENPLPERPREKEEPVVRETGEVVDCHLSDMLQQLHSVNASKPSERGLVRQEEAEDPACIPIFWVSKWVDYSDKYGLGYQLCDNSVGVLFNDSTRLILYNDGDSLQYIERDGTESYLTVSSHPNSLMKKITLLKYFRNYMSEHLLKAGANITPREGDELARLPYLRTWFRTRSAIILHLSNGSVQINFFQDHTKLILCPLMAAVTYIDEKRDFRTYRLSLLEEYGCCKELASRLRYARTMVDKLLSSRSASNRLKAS

COc1nc(N[C@H]2CC[C@H](NS(=O)(=O)CC(C)C)CC2)nc2[nH]nc(N3CCOC[C@H]3C)c12 [compound 39, N-(trans-4-((4-Methoxy-3-((R)-3-methylmorpholino)-1H-pyrazolo[3,4-d]pyrimidin-6-yl)amino)cyclohexyl)-2-methylpropane-1-sulfonamide]
≥ 20 µM: all assays above
